In PMC7272617 (Scientific Reports, 2020):
Values after ≈ are worked out from the molar mass of the structure shown. Where a SMILES comes first, the peptide text is derived from it.

Columns and labels:
[1] = tested on: Vibrio cholera O1 Inaba DMST 16261; conditions: MHB, 37 °C, 24 h
[2] = tested on: Staphylococcus epidermidis ATCC 12228; conditions: ATCC 12228, 24 h
[3] = tested on: all Gram-negative strains; assay: Mean MIC and therapeutic index, Gram-negative strains; type: cell-based; conditions: 7 Gram-negative strains of Table 3
Description: (§1) The antimicrobial activity of the peptides was determined against both Gram-positive and -negative bacteria including 14 MDR P. aeruginosa clinical isolates from Bhumibol Adulyadej Hospital (Tables 1 and 3). The minimal inhibitory concentration (MIC) of each peptide was measured according to a modification of the National Committee for Clinical Laboratory Standards (NCCLS) broth microdilution method as previously described. Briefly, bacterial cells in mid-log phase were cultured in Müeller-Hinton broth (MHB) and then diluted to 10^7 CFU/ml. […] Plates were incubated at 37 °C for 24 h, and MICs were defined as the lowest concentration of peptide that prevented visible turbidity. Cultures without peptides and uninoculated MHB were employed as positive and negative controls, respectively. Colony count assays were performed to determine the minimal bactericidal concentrations (MBCs) for determination of time-killing activity. As previously described, a 50 μl aliquot from each non-turbid well identified in the MIC determination experiment was spread on agar plates.
(§2) To further evaluate the global activity of these peptides, the geometric mean (GM) MIC and the therapeutic index (TI) of each were calculated (Table 3). The TI, a widely used parameter to evaluate cell selectivity and specificity of antimicrobial agents, was calculated as the ratio of MHC (the concentration that causes 10% hemolysis) to the geometric mean of MICs[22]. Higher TIs indicated greater cell selectivity and specificity.

[4] = tested on: Escherichia coli ATCC 25922; conditions: ATCC 25922, 24 h
[5] = tested on: Enterococcus faecalis ATCC 29212; conditions: ATCC 29212, 24 h
[6] = tested on: all Gram-positive strains; assay: Mean MIC and therapeutic index, Gram-positive strains; type: cell-based; conditions: 5 Gram-positive strains of Table 3
Description: as §1, §2

[7] = tested on: Staphylococcus aureus ATCC 25923; conditions: ATCC 25923, 24 h
[8] = tested on: Listeria monocytogenes 10403 s; conditions: 10403 s, 24 h
[9] = tested on: Escherichia coli O157:H7 MT strain; conditions: E. coli O157:H7 MT strain; MHB, 37 °C, 24 h
[10] = tested on: Salmonella Typhimurium ATCC 13311; conditions: ATCC 13311, 24 h
[11] = tested on: Pseudomonas aeruginosa ATCC 27853; conditions: ATCC 27853, 24 h

## CC[C@H](C)[C@H](NC(=O)[C@H](CCCNC(=N)N)NC(=O)[C@H](CCCCN)NC(=O)[C@H](C)NC(=O)[C@@H](NC(=O)[C@@H](N)CCCCN)[C@@H](C)CC)C(=O)N[C@@H](Cc1c[nH]c2ccccc12)C(=O)N[C@@H](CCCCN)C(=O)N[C@H](C(=O)N[C@@H](CC(C)C)C(=O)N[C@@H](CCCNC(=N)N)C(=O)N[C@@H](CCCNC(=N)N)C(=O)N[C@@H](CCCNC(=N)N)C(=O)N[C@@H](CC(C)C)C(=O)N[C@@H](Cc1ccccc1)C(=O)N[C@@H](CCCNC(=N)N)C(=O)N[C@@H](CCCNC(=N)N)C(=O)N[C@H](C(=O)N[C@@H](CCCCN)C(=O)N[C@@H](CCCCN)C(=O)N[C@H](C(=O)N[C@@H](C)C(=O)NCC(N)=O)C(C)C)C(C)C)[C@@H](C)CC [P7A3] (H-KIAKRIWKILRRRLFRRVKKVAG-NH2; N-terminus assumed)
[1]
  MIC: 7.81 µg/mL (≈ 2.7 µM)
[2]
  MIC: 3.91 µg/mL (≈ 1.35 µM)
[3]
  GM (Gr.− strains): geometric mean of MIC values from all Gram-negative strains: 42.97 µg/mL
[4]
  MIC: 15.63 µg/mL (≈ 5.41 µM)
[5]
  MIC: 31.25 µg/mL (≈ 10.8 µM)
[6]
  GM (Gr.+ strains): geometric mean of MIC values from all Gram-positive strains: 12.50 µg/mL
[7]
  MIC: 15.63 µg/mL (≈ 5.41 µM)
[8]
  MIC: 3.91 µg/mL (≈ 1.35 µM)
[9]
  MIC: 250 µg/mL (≈ 86.5 µM)

## CC[C@H](C)[C@H](NC(=O)[C@H](CCCNC(=N)N)NC(=O)[C@H](CCCCN)NC(=O)[C@H](C)NC(=O)[C@@H](NC(=O)[C@@H](N)CCCCN)[C@@H](C)CC)C(=O)N[C@@H](Cc1c[nH]c2ccccc12)C(=O)N[C@@H](CCCCN)C(=O)N[C@H](C(=O)N[C@@H](CC(C)C)C(=O)N[C@@H](CCCNC(=N)N)C(=O)N[C@@H](CCCNC(=N)N)C(=O)N[C@@H](CCCNC(=N)N)C(=O)N[C@@H](CC(C)C)C(=O)N[C@@H](Cc1ccccc1)C(=O)N[C@@H](CCCNC(=N)N)C(=O)N[C@@H](CCCNC(=N)N)C(N)=O)[C@@H](C)CC [PA-17] (H-KIAKRIWKILRRRLFRR-NH2; N-terminus assumed)
[1]
  MIC: 7.81 µg/mL (≈ 3.38 µM)
[2]
  MIC: 3.91 µg/mL (≈ 1.69 µM)
[3]
  GM (Gr.− strains): geometric mean of MIC values from all Gram-negative strains: 15.63 µg/mL
[10]
  MIC: 3.91 µg/mL (≈ 1.69 µM)
[4]
  MIC: 15.63 µg/mL (≈ 6.77 µM)
[5]
  MIC: 31.25 µg/mL (≈ 13.5 µM)
[6]
  GM (Gr.+ strains): geometric mean of MIC values from all Gram-positive strains: 12.11 µg/mL
[7]
  MIC: 15.63 µg/mL (≈ 6.77 µM)
[8]
  MIC: 1.95 µg/mL (≈ 0.845 µM)
[9]
  MIC: 62.5 µg/mL (≈ 27.1 µM)

## CC[C@H](C)[C@H](NC(=O)[C@H](CCCNC(=N)N)NC(=O)[C@H](CCCCN)NC(=O)[C@H](C)NC(=O)[C@@H](NC(=O)[C@@H](N)CCCCN)[C@@H](C)CC)C(=O)N[C@@H](Cc1c[nH]c2ccccc12)C(=O)N[C@@H](CCCCN)C(=O)N[C@H](C(=O)N[C@@H](CC(C)C)C(=O)N[C@@H](CCCNC(=N)N)C(=O)N[C@@H](CCCNC(=N)N)C(=O)N[C@@H](CCCNC(=N)N)C(=O)N[C@@H](CC(C)C)C(=O)N[C@@H](Cc1ccccc1)C(N)=O)[C@@H](C)CC [PA-15] (H-KIAKRIWKILRRRLF-NH2; N-terminus assumed)
[1]
  MIC: 3.91 µg/mL (≈ 1.96 µM)
[3]
  GM (Gr.− strains): geometric mean of MIC values from all Gram-negative strains: 7.54 µg/mL
[10]
  MIC: 1.95 µg/mL (≈ 0.977 µM)
[5]
  MIC: 31.25 µg/mL (≈ 15.7 µM)
[11]
  MIC: 7.81 µg/mL (≈ 3.91 µM)
[6]
  GM (Gr.+ strains): geometric mean of MIC values from all Gram-positive strains: 9.77 µg/mL
[7]
  MIC: 7.81 µg/mL (≈ 3.91 µM)
[8]
  MIC: 1.95 µg/mL (≈ 0.977 µM)
[9]
  MIC: 15.63 µg/mL (≈ 7.83 µM)
